# Laboratory results taken from patent US8202885B2, “Bridged six-membered ring compounds” (Actelion Pharmaceuticals Ltd., priority 2007, dated 2012).
# Tested on: human Cav3.1 Cav3.2 or Cav3.3 channel
# Assay: In vitro assay T channel (FLIPR calcium fluorescence)
# Format: cell-based
# Conditions: HEK293 cells expressing human Cav3.1, Cav3.2 or Cav3.3; 10 mM Ca2+-induced fluo-4 fluorescence; determined up to 10 μM; read-out: T channel antagonistic activity IC50
# In short: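 HEK293 cells stably expressing human Cav3.1, Cav3.2 or Cav3.3 loaded with fluo-4 AM (3 μM), preincubated 3 min with antagonist, then stimulated with 10 mM Ca2+ in TEA-chloride/HEPES buffer pH 7.2. FLIPR fluorescence read every 2 s for 8 min; IC50 from peak area versus vehicle, tested up to 10 μM.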
row,Structure (SMILES),IC50
1,"COc1cccc2nc(CCN(C)CC[C@]3(OC(=O)C(C)C)C[C@H]4CC[C@@H]3C=C4c3ccccc3)[nH]c12 (relative stereo) [Example 32A, rac-Isobutyric acid (1R*,2R*,4R*)-2-(2-{[2-(7-methoxy-1H-benzoimidazol-2-yl)-ethyl]-methyl-amino}-ethyl)-5-phenyl-bicyclo[2.2.2]oct-5-en-2-yl ester]",3390 nM
2,"CC(C)Oc1cccc2nc(CCCN(C)CC[C@]3(OC(=O)C(C)C)C[C@H]4CC[C@@H]3C=C4c3ccccc3)[nH]c12 (relative stereo) [Example 33A, rac-Isobutyric acid (1R*,2R*,4R*)-2-(2-{[3-(7-isopropoxy-1H-benzoimidazol-2-yl)-propyl]-methyl-amino}-ethyl)-5-phenyl-bicyclo[2.2.2]oct-5-en-2-yl ester]",1660 nM
3,"COc1cccc2[nH]c(CCCN(C)CC[C@]3(OC(=O)C(C)C)C[C@H]4CCC[C@@H]3C=C4c3ccccc3)nc12 (relative stereo) [Example 36A, rac-Isobutyric acid (1R*,5R*,6R*)-6-(2-{[3-(4-methoxy-1H-benzoimidazol-2-yl)-propyl]-methyl-amino}-ethyl)-8-phenyl-bicyclo[3.2.2]non-8-en-6-yl ester]",1010 nM
4,"COc1cccc2[nH]c(CCCN(C)CC[C@]3(OC(=O)CC(F)(F)F)C[C@H]4CCC[C@@H]3C=C4c3ccccc3)nc12 (relative stereo) [Example 36B, rac-3,3,3-Trifluoro-propionic acid (1R*,5R*,6R*)-6-(2-{[3-(4-methoxy-1H-benzoimidazol-2-yl)-propyl]-methyl-amino}-ethyl)-8-phenyl-bicyclo[3.2.2]non-8-en-6-yl ester]",2450 nM
5,"COc1cccc2c1nc(CCCN(C)CC[C@]1(OC(=O)C(C)C)C[C@H]3CC[C@@H]1C=C3c1ccccc1)n2C (relative stereo) [Example 37A, rac-Isobutyric acid (1R*,2R*,4R*)-2-(2-{[3-(4-methoxy-1-methyl-1H-benzoimidazol-2-yl)-propyl]-methyl-amino}-ethyl)-5-phenyl-bicyclo[2.2.2]oct-5-en-2-yl ester]",935 nM
6,"CCOc1ccc(CCN(CC)CC[C@]2(O)C[C@H]3CC[C@@H]2C=C3c2ccccc2)cc1OCC (relative stereo) [Example 38, rac-(1R*,2R*,4R*)-2-(2-{[2-(3,4-Diethoxy-phenyl)-ethyl]-ethyl-amino}-ethyl)-5-phenyl-bicyclo[2.2.2]oct-5-en-2-ol]",6700 nM
7,"CCOc1ccc(CCN(CC)CC[C@]2(OC(=O)C(C)C)C[C@H]3CC[C@@H]2C=C3c2ccccc2)cc1OCC (relative stereo) [Example 38A, rac-Isobutyric acid (1R*,2R*,4R*)-2-(2-{[2-(3,4-diethoxy-phenyl)-ethyl]-ethyl-amino}-ethyl)-5-phenyl-bicyclo[2.2.2]oct-5-en-2-yl ester]",2510 nM
8,"COc1ccc(CCCN(C)CC[C@]2(O)C[C@H]3CC[C@@H]2C=C3c2ccccc2)cc1OC (relative stereo) [Example 39, rac-(1R*,2R*,4R*)-2-(2-{[3-(3,4-Dimethoxy-phenyl)-propyl]-methyl-amino}-ethyl)-5-phenyl-bicyclo[2.2.2]oct-5-en-2-ol]",> 10000 nM
9,"COc1ccc(CCCN(C)CC[C@]2(OC(=O)C(C)C)C[C@H]3CC[C@@H]2C=C3c2ccccc2)cc1OC (relative stereo) [Example 39A, rac-Isobutyric acid (1R*,2R*,4R*)-2-(2-{[3-(3,4-dimethoxy-phenyl)-propyl]-methyl-amino}-ethyl)-5-phenyl-bicyclo[2.2.2]oct-5-en-2-yl ester]",7490 nM
10,"CCOc1ccc(CCCN(C)CC[C@]2(O)C[C@H]3CC[C@@H]2C=C3c2ccccc2)cc1OCC (relative stereo) [Example 40, rac-(1R*,2R*,4R*)-2-(2-{[3-(3,4-Diethoxy-phenyl)-propyl]-methyl-amino}-ethyl)-5-phenyl-bicyclo[2.2.2]oct-5-en-2-ol]",3330 nM
11,"CCOc1ccc(CCCN(C)CC[C@]2(OC(=O)C(C)C)C[C@H]3CC[C@@H]2C=C3c2ccccc2)cc1OCC (relative stereo) [Example 40A, rac-Isobutyric acid (1R*,2R*,4R*)-2-(2-{[3-(3,4-diethoxy-phenyl)-propyl]-methyl-amino}-ethyl)-5-phenyl-bicyclo[2.2.2]oct-5-en-2-yl ester]",8930 nM

# Next, values leading:
row,IC50,Structure (SMILES)
1,1480 nM,"COc1cccc2nc(CCN(C)CC[C@]3(O)C[C@H]4CC[C@@H]3C=C4c3ccccc3)[nH]c12 (relative stereo) [Example 32, rac-(1R*,2R*,4R*)-2-(2-{[2-(7-Methoxy-1H-benzoimidazol-2-yl)-ethyl]-methyl-amino}-ethyl)-5-phenyl-bicyclo[2.2.2]oct-5-en-2-ol]"
2,2990 nM,"CC(C)Oc1cccc2nc(CCCN(C)CC[C@]3(O)C[C@H]4CC[C@@H]3C=C4c3ccccc3)[nH]c12 (relative stereo) [Example 33, rac-(1R*,2R*,4R*)-2-(2-{[3-(7-Isopropoxy-1H-benzoimidazol-2-yl)-propyl]-methyl-amino}-ethyl)-5-phenyl-bicyclo[2.2.2]oct-5-en-2-ol]"
3,2560 nM,"CN(CCCc1nc2cccc(O)c2[nH]1)CC[C@]1(O)C[C@H]2CC[C@@H]1C=C2c1ccccc1 (relative stereo) [Example 34, rac-(1R*,2R*,4R*)-2-(3-{[2-(2-Hydroxy-5-phenyl-bicyclo[2.2.2]oct-5-en-2-yl)-ethyl]-methyl-amino}-propyl)-3H-benzoimidazol-4-ol]"
4,4340 nM,"CC(C)C(=O)Oc1cccc2nc(CCCN(C)CC[C@]3(OC(=O)C(C)C)C[C@H]4CC[C@@H]3C=C4c3ccccc3)[nH]c12 (relative stereo) [Example 34A, rac-Isobutyric acid (1R*,2R*,4R*)-2-(2-{[3-(7-isobutyryloxy-1H-benzoimidazol-2-yl)-propyl]-methyl-amino}-ethyl)-5-phenyl-bicyclo[2.2.2]oct-5-en-2-yl ester]"
5,1340 nM,"CC(C)C(=O)O[C@@]1(CCN(C)CCCc2nc3cccc(O)c3[nH]2)C[C@H]2CC[C@@H]1C=C2c1ccccc1 (relative stereo) [Example 35A, rac-Isobutyric acid (1R*,2R*,4R*)-2-(2-{[3-(7-hydroxy-1H-benzoimidazol-2-yl)-propyl]-methyl-amino}-ethyl)-5-phenyl-bicyclo[2.2.2]oct-5-en-2-yl ester]"
6,1330 nM,"COc1cccc2[nH]c(CCCN(C)CC[C@]3(O)C[C@H]4CCC[C@@H]3C=C4c3ccccc3)nc12 (relative stereo) [Example 36, rac-(1R*,5R*,6R*)-6-(2-{[3-(4-Methoxy-1H-benzoimidazol-2-yl)-propyl]-methyl-amino}-ethyl)-8-phenyl-bicyclo[3.2.2]non-8-en-6-ol]"
7,6650 nM,"COc1cccc2c1nc(CCCN(C)CC[C@]1(O)C[C@H]3CC[C@@H]1C=C3c1ccccc1)n2C (relative stereo) [Example 37, rac-(1R*,2R*,4R*)-2-(2-{[3-(4-Methoxy-1-methyl-1H-benzoimidazol-2-yl)-propyl]-methyl-amino}-ethyl)-5-phenyl-bicyclo[2.2.2]oct-5-en-2-ol]"
8,> 10000 nM,"CN(CCCc1cnc2occc2c1)CC[C@]1(O)C[C@H]2CC[C@@H]1C=C2c1ccccc1 (relative stereo) [Example 41, rac-(1R*,2R*,4R*)-2-{2-[(3-Furo[2,3-b]pyridin-5-yl-propyl)-methyl-amino]-ethyl}-5-phenyl-bicyclo[2.2.2]oct-5-en-2-ol]"
